From patent publication US8377691B2 (priority 2006, dated 2013)
Entries after “also recorded” stand apart in the source; their conditions may differ. Read-outs that look alike come from different tables or passages of the source.

Assays:
Shaker(Δ6-46)T449V = molecular target: T1, Shaker(Δ6-46)T449V (Drosophila melanogaster, UniProt P08510, DEL6-46/T449V); type: biochemical; conditions: for Shaker activity: iberiotoxin (10 uM), margatoxin (10 uM); for lipoparticle Shaker activity: pre-treated with 10 nM toxin, duplicate experiments
T1 construct: made in house; host or cells: 293 / HEK-293 cells co-transfected with MLV Gag
T1 sequence (P08510 with tags, fused parts or gaps DEL6-46/T449V): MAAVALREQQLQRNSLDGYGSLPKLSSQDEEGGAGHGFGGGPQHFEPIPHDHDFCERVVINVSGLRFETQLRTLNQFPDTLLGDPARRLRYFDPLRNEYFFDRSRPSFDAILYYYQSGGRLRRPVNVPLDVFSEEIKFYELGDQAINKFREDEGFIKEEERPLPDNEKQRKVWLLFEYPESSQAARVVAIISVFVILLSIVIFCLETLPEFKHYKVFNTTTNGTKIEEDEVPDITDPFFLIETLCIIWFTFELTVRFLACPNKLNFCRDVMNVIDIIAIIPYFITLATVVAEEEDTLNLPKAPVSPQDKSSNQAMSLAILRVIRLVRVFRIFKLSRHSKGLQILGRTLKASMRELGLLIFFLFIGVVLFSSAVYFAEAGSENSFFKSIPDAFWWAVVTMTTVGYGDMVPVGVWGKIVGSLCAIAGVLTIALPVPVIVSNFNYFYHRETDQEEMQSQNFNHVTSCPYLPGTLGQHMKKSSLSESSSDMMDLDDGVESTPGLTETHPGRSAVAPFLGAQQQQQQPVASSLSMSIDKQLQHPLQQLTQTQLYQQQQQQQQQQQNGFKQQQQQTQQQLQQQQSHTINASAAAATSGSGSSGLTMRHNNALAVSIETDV

A/M2/HK156/94 = A/M2/HK156/94 (Influenza A virus, UniProt O70632); assay: biochemical; type: biochemical; conditions: for H+ transport across VLP membranes (fluorescence): pH 4.5
Sequence of A/M2/HK156/94 (O70632 whole entry, looked up): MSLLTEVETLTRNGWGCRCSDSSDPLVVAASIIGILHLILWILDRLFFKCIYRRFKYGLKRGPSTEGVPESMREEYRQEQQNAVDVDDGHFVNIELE

M2 = conditions: cited from earlier work
A/M2 Udorn72 = A/M2 Udorn72 (Influenza A virus, UniProt P0DOF5); type: biochemical; conditions: pH 4.5
Sequence of A/M2 Udorn72 (P0DOF5 whole entry, looked up): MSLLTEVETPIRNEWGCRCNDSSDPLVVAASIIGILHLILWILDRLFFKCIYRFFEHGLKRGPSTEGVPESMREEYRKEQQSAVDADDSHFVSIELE

5HT3a cation channel = 5HT3a cation channel (Homo sapiens, UniProt P46098); type: biochemical
Sequence of 5HT3a cation channel (P46098 24-478): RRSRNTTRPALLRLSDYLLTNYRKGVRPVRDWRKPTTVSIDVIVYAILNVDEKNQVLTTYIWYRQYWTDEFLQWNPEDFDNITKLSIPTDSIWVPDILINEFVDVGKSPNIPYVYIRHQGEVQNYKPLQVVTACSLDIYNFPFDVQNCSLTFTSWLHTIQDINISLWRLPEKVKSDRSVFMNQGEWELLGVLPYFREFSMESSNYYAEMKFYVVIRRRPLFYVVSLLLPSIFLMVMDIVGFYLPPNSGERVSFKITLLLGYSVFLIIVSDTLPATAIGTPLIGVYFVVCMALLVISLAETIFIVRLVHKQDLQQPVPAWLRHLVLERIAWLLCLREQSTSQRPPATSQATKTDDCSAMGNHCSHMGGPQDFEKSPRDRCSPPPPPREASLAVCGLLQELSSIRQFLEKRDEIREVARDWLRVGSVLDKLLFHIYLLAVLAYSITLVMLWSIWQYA

[1] = type: biochemical; conditions: for response to 30 mM K2SO4 after prior disruption of the lipoparticle structure: gramicidin (1 uM) or melittin (5 uM)
[2] = molecular target: M2 viral ion channel, Influenza A (Udorn/72) virions (Influenza A virus, UniProt P0DOF5); type: biochemical
Sequence of M2 viral ion channel, Influenza A (Udorn/72) virions (P0DOF5 whole entry, looked up): as the sequence (P0DOF5 whole entry, looked up) above

human KCNQ2/3 channel = molecular target: T2, human KCNQ2/3 channel (Homo sapiens, UniProt O43525+O43526); type: biochemical
T2 construct: made in house
T2 sequence (O43526 whole entry): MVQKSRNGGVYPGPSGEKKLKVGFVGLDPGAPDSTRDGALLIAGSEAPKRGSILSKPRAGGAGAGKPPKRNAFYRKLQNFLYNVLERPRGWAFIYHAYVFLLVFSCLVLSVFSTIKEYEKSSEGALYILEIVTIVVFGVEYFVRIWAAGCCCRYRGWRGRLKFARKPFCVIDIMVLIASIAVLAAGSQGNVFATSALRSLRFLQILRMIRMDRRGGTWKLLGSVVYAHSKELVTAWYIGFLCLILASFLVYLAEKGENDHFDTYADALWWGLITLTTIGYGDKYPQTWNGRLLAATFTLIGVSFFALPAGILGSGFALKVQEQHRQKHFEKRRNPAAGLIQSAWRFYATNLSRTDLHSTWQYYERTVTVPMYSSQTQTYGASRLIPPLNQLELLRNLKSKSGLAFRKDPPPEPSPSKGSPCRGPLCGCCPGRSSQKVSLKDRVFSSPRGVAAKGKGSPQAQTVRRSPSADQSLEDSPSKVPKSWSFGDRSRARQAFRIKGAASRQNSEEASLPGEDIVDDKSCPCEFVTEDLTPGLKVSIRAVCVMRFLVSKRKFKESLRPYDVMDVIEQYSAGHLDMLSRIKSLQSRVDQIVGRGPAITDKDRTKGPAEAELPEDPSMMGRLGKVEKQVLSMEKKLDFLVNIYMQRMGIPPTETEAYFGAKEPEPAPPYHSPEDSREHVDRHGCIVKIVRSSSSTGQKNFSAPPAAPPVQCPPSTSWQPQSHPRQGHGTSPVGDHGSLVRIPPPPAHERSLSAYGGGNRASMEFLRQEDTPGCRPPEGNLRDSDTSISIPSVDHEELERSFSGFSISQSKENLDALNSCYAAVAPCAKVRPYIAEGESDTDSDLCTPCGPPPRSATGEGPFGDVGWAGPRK
T2 sequence (O43525 whole entry): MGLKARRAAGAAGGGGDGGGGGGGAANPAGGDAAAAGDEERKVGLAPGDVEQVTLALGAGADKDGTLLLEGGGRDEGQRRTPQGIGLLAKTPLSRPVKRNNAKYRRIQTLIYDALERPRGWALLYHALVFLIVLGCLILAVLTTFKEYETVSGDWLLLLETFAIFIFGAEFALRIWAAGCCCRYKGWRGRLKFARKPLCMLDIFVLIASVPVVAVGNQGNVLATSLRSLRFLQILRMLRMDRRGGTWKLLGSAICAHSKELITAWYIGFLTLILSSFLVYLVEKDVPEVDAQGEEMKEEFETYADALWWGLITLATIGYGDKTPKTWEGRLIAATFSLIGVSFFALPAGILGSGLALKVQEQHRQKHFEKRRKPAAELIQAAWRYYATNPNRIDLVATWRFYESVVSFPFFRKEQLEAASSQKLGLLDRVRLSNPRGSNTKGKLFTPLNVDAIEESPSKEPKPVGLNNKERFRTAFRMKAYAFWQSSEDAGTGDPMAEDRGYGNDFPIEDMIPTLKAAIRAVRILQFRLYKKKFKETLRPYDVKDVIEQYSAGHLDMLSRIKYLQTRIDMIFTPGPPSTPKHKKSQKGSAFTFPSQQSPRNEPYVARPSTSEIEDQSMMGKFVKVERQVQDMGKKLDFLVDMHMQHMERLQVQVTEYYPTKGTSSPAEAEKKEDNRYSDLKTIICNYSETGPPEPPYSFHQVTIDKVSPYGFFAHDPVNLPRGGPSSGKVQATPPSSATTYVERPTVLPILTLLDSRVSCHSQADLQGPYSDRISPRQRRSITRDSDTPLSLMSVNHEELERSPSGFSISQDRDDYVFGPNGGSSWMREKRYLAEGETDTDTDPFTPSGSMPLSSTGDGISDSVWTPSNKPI

Shaker T449K mutant = molecular target: T3, Shaker T449K mutant (Drosophila melanogaster, UniProt P08510, T449K); type: biochemical; conditions: 10 nM CHTX pre-treatment
T3 construct: made in house
T3 sequence (P08510 whole entry T449K): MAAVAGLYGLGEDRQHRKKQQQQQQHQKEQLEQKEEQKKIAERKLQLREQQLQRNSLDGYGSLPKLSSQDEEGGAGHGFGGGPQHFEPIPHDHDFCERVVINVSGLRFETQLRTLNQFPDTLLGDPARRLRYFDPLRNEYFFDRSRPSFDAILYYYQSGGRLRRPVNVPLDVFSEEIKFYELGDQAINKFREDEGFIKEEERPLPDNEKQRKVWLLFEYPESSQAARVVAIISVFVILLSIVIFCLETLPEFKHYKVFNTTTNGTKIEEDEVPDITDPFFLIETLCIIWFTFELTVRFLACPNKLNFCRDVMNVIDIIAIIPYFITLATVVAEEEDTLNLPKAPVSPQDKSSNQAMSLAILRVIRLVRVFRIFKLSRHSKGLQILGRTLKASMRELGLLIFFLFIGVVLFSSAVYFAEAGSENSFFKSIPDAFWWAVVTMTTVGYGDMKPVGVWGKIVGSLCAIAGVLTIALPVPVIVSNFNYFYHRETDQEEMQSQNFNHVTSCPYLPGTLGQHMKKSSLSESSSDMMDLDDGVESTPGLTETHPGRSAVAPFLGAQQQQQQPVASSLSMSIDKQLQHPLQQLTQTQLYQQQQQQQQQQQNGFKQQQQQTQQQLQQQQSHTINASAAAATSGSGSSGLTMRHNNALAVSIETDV

Shaker = Shaker (Drosophila melanogaster, UniProt P08510); conditions: cited from earlier work
Sequence of Shaker (P08510 whole entry): as the sequence (P08510 whole entry T449K) above, with K449T counted along it

iberiotoxin (QFTDVDCSVSKECWSVCKDLFGVDRGKCMGKKCRCYQ; UniProt P24663 1-37, looked up)
Shaker activity (Shaker(Δ6-46)T449V): did not inhibit Shaker activity | lipoparticle Shaker activity (Shaker(Δ6-46)T449V; 30 mM K2SO4): do not influence

CC(N)C12CC3CC(CC(C3)C1)C2 (stereo not drawn) [rimantadine]
Hillslope of inhibition curve (A/M2/HK156/94): −1.1 | IC50 (A/M2/HK156/94): 180 nM | mean change in fluorescence resulting from MES addition (A/M2/HK156/94): −432±167 | H+ transport across VLP membranes (fluorescence) (A/M2/HK156/94): abrogated the subsequent movement of H^+ | potency relative to amantadine reported in the literature (M2; more potent than amantadine): approximately 10 times | H+ transport fluorescence signal (A/M2 Udorn72): inhibited the fluorescent response; also recorded: abrogated the subsequent movement of H^+; also recorded: completely abrogated

NCCc1c[nH]c2ccc(O)cc12 [serotonin]
dependence of the fluorescent signal on the ligand (5HT3a cation channel): dependent upon the presence; also recorded: omission of the ion channel ligand, serotonin, from the assay mix resulted in no change in fluorescence intensity

CC(C)[C@@H]1NC(=O)[C@H](C)OC(=O)[C@@H](C(C)C)NC(=O)[C@@H](C(C)C)OC(=O)[C@H](C(C)C)NC(=O)[C@H](C)OC(=O)[C@@H](C(C)C)NC(=O)[C@@H](C(C)C)OC(=O)[C@H](C(C)C)NC(=O)[C@H](C)OC(=O)[C@@H](C(C)C)NC(=O)[C@@H](C(C)C)OC1=O [Valinomycin, valinomycin]
fluorescent signal on K+ exposure (normalized to baseline) ([1]; valinomycin-treated null-lipoparticles, twelve replicates, microplate, mean+/−standard deviation, untreated 1.023+/−0.009): 1.347+/−0.036

NC12CC3CC(CC(C3)C1)C2 [amantadine]
Hillslope of inhibition curve (A/M2/HK156/94): −0.71 | IC50 (A/M2/HK156/94): 980 nM | mean change in fluorescence resulting from MES addition (A/M2/HK156/94): 314±206 | H+ transport across VLP membranes (fluorescence) (A/M2/HK156/94): abrogated the subsequent movement of H^+; also recorded: in the absence, but not in the presence of amantadine | fluorescent signal (membrane potential response) on low pH challenge [2]: attenuated the fluorescent signal in a dose-dependent fashion; also recorded: inhibited | IC50 (M2; other measures of M2 function, such as plaque assay, read-out: IC50 reported in the literature): 1000 to 10000 nM | H+ transport fluorescence signal (A/M2 Udorn72): inhibited the fluorescent response; also recorded: abrogated the subsequent movement of H^+; also recorded: completely abrogated

CC[C@H](C)[C@H](NC(=O)CN)C(=O)NCC(=O)N[C@@H](C)C(=O)N[C@H](C(=O)N[C@@H](CC(C)C)C(=O)N[C@@H](CCCCN)C(=O)N[C@H](C(=O)N[C@@H](CC(C)C)C(=O)N[C@H](C(=O)N[C@H](C(=O)NCC(=O)N[C@@H](CC(C)C)C(=O)N1CCC[C@H]1C(=O)N[C@@H](C)C(=O)N[C@@H](CC(C)C)C(=O)N[C@H](C(=O)N[C@@H](CO)C(=O)N[C@@H](Cc1c[nH]c2ccccc12)C(=O)N[C@H](C(=O)N[C@@H](CCCCN)C(=O)N[C@@H](CCCNC(=N)N)C(=O)N[C@@H](CCCCN)C(=O)N[C@@H](CCCNC(=N)N)C(=O)N[C@@H](CCC(N)=O)C(=O)N[C@@H](CCC(N)=O)C(N)=O)[C@@H](C)CC)[C@@H](C)CC)[C@@H](C)O)[C@@H](C)O)C(C)C)C(C)C [melittin]
response to 30 mM K2SO4 after prior disruption of the lipoparticle structure [1]: eliminated the response

margatoxin (TIINVKCTSPKQCLPPCKAQFGQSAGAKCMNGKCKCYPH; UniProt P40755 1-39, looked up)
Shaker activity (Shaker(Δ6-46)T449V): did not inhibit Shaker activity | lipoparticle Shaker activity (Shaker(Δ6-46)T449V; 30 mM K2SO4): do not influence

[Ba+2].[Cl-].[Cl-] [BaCl2]
fluorescent signal on K+ addition (human KCNQ2/3 channel; 20 mM BaCl2): inhibition | fluorescent signal on K+ addition (human KCNQ2/3 channel; 120 mM BaCl2 pre-treatment): capable of inhibiting the fluorescent signal

charybdotoxin [CHTX]
Shaker conductance of K+ across lipoparticle membranes (Shaker(Δ6-46)T449V; 10 nM CHTX pre-incubation, 30 mM K2SO4): completely inhibited | inhibition of the fluorescent signal over a concentration range (Shaker(Δ6-46)T449V; CHTX 100 pM to 10 nM, 10 ug Shaker plasmid): concentration-dependent inhibition | low concentration at which inhibition of membrane depolarization was evident (Shaker(Δ6-46)T449V; lipoparticles produced using 10 ug Shaker plasmid, 30 mM K2SO4): 0.1 nM | fluorescent signal on K+ addition (Shaker T449K mutant): capable of inhibiting the fluorescent signal; also recorded: inhibition | effect of channel inhibitor on valinomycin-mediated K+ movement (specificity control) ([1]; null-lipoparticles pre-treated with 1 uM valinomycin, CHTX up to 10 nM, tubocurarine): did not influence; also recorded: had no effect | CHTX inhibition of Shaker in cells reported in the literature (Shaker): ~3.6 nM

gramicidin
response to 30 mM K2SO4 after prior disruption of the lipoparticle structure [1]: eliminated the response

COc1cc2c3cc1Oc1cc(ccc1O)C[C@@H]1c4c(cc(OC)c(O)c4Oc4ccc(cc4)C[C@@H]3N(C)CC2)CC[N+]1(C)C [tubocurarine]
fluorescent signal on Na+ addition (5HT3a cation channel): capable of inhibiting the fluorescent signal; also recorded: inhibition
